Among the data in patent publication US7534809B2, “Phospho-indoles as HIV inhibitors” (priority 2004, dated 2009) are IC50 and EC50 values, retold here.

Broadly, the IC50 is the concentration that gives 50% inhibition. Read a high IC50 as a need for much substance.

Assay [1] deals with HIV reverse transcriptase WT (Human immunodeficiency virus type 1 group M subtype B, UniProt P03366). As to the kind of experiment: Enzyme assay, reverse transcriptase WT. In kind it is biochemical, HIV-1. The text has this: (§1) As used herein, “reverse transcriptase” or “RT” refers to an enzyme having a non-nucleoside inhibitory binding site similar to that of HIV-1 RT, and to which ligands, which bind the composite binding pocket of the compounds of the present invention, also will bind. One measure of RT activity is viral replication. A measure of HIV-1 viral replication is the automated assay that utilizes MTT, as described earlier in this specification. Another measure is the p24 core antigen enzyme immunoassay, such as, for example, the assay commercially available from Coulter Corporation/Immunotech, Inc.® (Westbrook, Mich.). Another means for measuring RT activity is by assaying recombinant HIV-1 reverse transcriptase activity, such as, for example, by using the Quan-T-RT™ assay system commercially available from Amersham® (Arlington Heights, Ill.) and as described by Bosworth et al., Nature, 1989, 341:167-168.
(§2) The 3-phosphoindoles can be assessed for their ability to inhibit reverse transcriptase activity in vitro according to standard screening methods.

Assay [2] has as its target HIV reverse transcriptase Y181C (Human immunodeficiency virus type 1 group M subtype B, UniProt P03366, Y780C). Put plainly: Enzyme assay, reverse transcriptase Y181C. The class given is biochemical, HIV-1.
Description: as §1, §2

For assay [3], the target named is HIV reverse transcriptase K103N (Human immunodeficiency virus type 1 group M subtype B, UniProt P03366, K702N). Put plainly: Enzyme assay, reverse transcriptase K103N. The class given is biochemical, HIV-1.
Description: as §1, §2

Assay [4] has as its target HIV reverse transcriptase K103N/Y181C (Human immunodeficiency virus type 1 group M subtype B, UniProt P03366, K702N/Y780C). Put plainly: Enzyme assay, reverse transcriptase K103N/Y181C. The class given is biochemical, HIV-1.
Description: as §1, §2

A further assay deals with HIV BH-10 WT. Put plainly: Cell-based assay using BH-10 cells, wild type. The following applies: Human immunodeficiency virus 1, read-out: EC50 WT///B, BH-10 cells, wild type.
In the next assay the test system is HIV mutant strain Y181C. As to the kind of experiment: Cell-based assay using BH-10 cells, Y181C mutant. The following applies: Human immunodeficiency virus 1, read-out: EC50 Y181C, BH-10 cells, Y181C mutant.
The test system of assay [5] is HIV mutant strain K103N/Y181C. Put plainly: Cell-based assay using BH-10 cells, K103N/Y181C mutant. The settings on record: Human immunodeficiency virus 1, read-out: EC50 K103N/Y181C, BH-10 cells, K103N/Y181C mutant.

Consider `CCOP(=O)(c1ccccc1)c1c(C(N)=O)[nH]c2ccc(Cl)cc12` (stereo not shown) [Compound 6a], for which the IC50 was 722 nM in assay [1], 1970 nM in assay [2], 1630 nM in assay [3] and > 5000 nM in assay [4]. Moreover, the EC50 amounted to 1.2 nM with HIV BH-10 WT, 13.7 nM with HIV mutant strain Y181C and 16.4 nM in assay [5].
`CCOP(=O)(c1cc(F)cc(F)c1)c1c(C(N)=O)[nH]c2ccc(Cl)cc12` (stereo not shown) [Compound 6ac]: the IC50 in assay [1] was 726 nM; in assay [2], 3500 nM; in assay [3] it was 12700 nM; in assay [4] it was > 5000 nM. Besides, the EC50 with HIV BH-10 WT is 3.7 nM; in the assay on HIV mutant strain Y181C, 986 nM; in assay [5] it was > 1250 nM.
In the case of `CCOP(=O)(c1ccccc1F)c1c(C(N)=O)[nH]c2ccc(Cl)cc12` (stereo not shown) [Compound 6ad], the IC50 in assay [1] was 433 nM; in assay [2] it was 4350 nM; in assay [3] it was 3290 nM; in assay [4], > 5000 nM. For the same molecule, the EC50 with HIV BH-10 WT came to 0.9 nM; in the assay on HIV mutant strain Y181C, 58.3 nM; in assay [5] it was 17 nM.
For `CCOP(=O)(c1cc(C)cc(C)c1)c1c(C(N)=O)[nH]c2ccc(Cl)cc12` (stereo not shown) [Compound 6b], the IC50 in assay [1] is 1640 nM; in assay [2] it was 4310 nM; in assay [3], 2610 nM; in assay [4] it was > 5000 nM. Moreover, the EC50 amounted to 3 nM in the assay on HIV BH-10 WT, 28 nM in the assay on HIV mutant strain Y181C and 51.7 nM in assay [5].
As to `CCOP(=O)(c1ccc(F)cc1)c1c(C(N)=O)[nH]c2ccc(Cl)cc12` (stereo not shown) [Compound 6c], the IC50 in assay [1] is 3620 nM; in assay [2] it was > 5000 nM; in assay [3] it was > 5000 nM; in assay [4] it was > 5000 nM. Besides, the EC50 was 34.5 nM with HIV BH-10 WT, > 1250 nM with HIV mutant strain Y181C and > 1250 nM in assay [5].
With `COP(=O)(c1ccccc1)c1c(C(N)=O)[nH]c2ccc(Cl)cc12` (stereo not shown) [Compound 7ah], the IC50 in assay [1] is 309 nM; in assay [2] it was 349 nM; in assay [3], 389 nM; in assay [4] it was 6750 nM. For the same molecule, the EC50 came to 0.4 nM in the assay on HIV BH-10 WT, 4.9 nM in the assay with HIV mutant strain Y181C and 3.4 nM in assay [5].
Consider `COP(=O)(c1ccccc1)c1c(C(N)=O)[nH]c2ccccc12` (stereo not shown) [Compound 7ai], for which the IC50 was 393 nM in assay [1], 5610 nM in assay [2], 6590 nM in assay [3] and > 5000 nM in assay [4]. Further, the EC50 in the assay on HIV BH-10 WT was 1 nM; in the assay with HIV mutant strain Y181C it was 1110 nM; in assay [5], 706 nM.
For `CCOP(=O)(c1cc(C)cc(C)c1)c1c(C(=O)NCc2ccncc2)[nH]c2ccc(Cl)cc12` (stereo not shown) [Compound 9a], the IC50 in assay [1] was 3410 nM; in assay [2] it was 4490 nM; in assay [3], 3360 nM; in assay [4], > 5000 nM. The values for the EC50 (in the assay on HIV BH-10 WT; in the assay with HIV mutant strain Y181C; in assay [5]) were 11 nM, 57.7 nM and 8 nM, respectively.
For `COP(=O)(c1ccccc1)c1c(C(=O)NCc2ccncc2)[nH]c2ccc(Cl)cc12` (stereo not shown) [Compound 18ar], the IC50 in assay [1] was found to be 156 nM; in assay [2], 489 nM; in assay [3] it was 930 nM; in assay [4] it was 1660 nM. Further, the values for the EC50 (in the assay on HIV BH-10 WT; in the assay on HIV mutant strain Y181C; in assay [5]) were 1 nM, 5.6 nM and 3.9 nM, respectively.
Turning to `NC(=O)c1[nH]c2ccc(Cl)cc2c1P(=O)(c1ccccc1)c1ccccc1` [Compound 27a], the IC50 in assay [1], in assay [2], in assay [3] and in assay [4] was > 5000 nM each time. Besides, the EC50 (in the assay with HIV BH-10 WT; in the assay with HIV mutant strain Y181C; in assay [5]) was > 1250 nM each time.
With `CP(=O)(c1ccccc1)c1c(C(N)=O)[nH]c2ccc(Cl)cc12` (stereo not shown) [Compound 29a], the IC50 was 233 nM in assay [1], 2520 nM in assay [2], > 5000 nM in assay [3] and > 5000 nM in assay [4]. In addition, the EC50 with HIV BH-10 WT is 0.8 nM; with HIV mutant strain Y181C, 266 nM; in assay [5] it was 1380 nM.
Regarding `CN(C)P(=O)(c1ccccc1)c1c(C(N)=O)[nH]c2ccc(Cl)cc12` (stereo not shown) [Compound 31a], the IC50 in assay [1] is 1400 nM; in assay [2] it was > 5000 nM; in assay [3], > 5000 nM; in assay [4] it was > 5000 nM. In addition, the EC50 in the assay on HIV BH-10 WT was 13.9 nM; in the assay on HIV mutant strain Y181C it was 467 nM; in assay [5], > 1250 nM.
As for `NC(=O)c1[nH]c2ccc(Cl)cc2c1P(=O)(O)c1ccccc1` [Compound 60a], the IC50 in assay [1], in assay [2], in assay [3] and in assay [4] was > 5000 nM in each case. Besides, the EC50 (with HIV BH-10 WT; in the assay with HIV mutant strain Y181C; in assay [5]) was > 1250 nM each time.
